Measurements as given in ChEMBL document CHEMBL3046687, “New thiazolidine-2,4-diones as antimicrobial and cytotoxic agent” (Med Chem Res, 2012).
pIC50: −log10 of the molar value. Values after ≈ are worked out from the molar mass of the structure shown.

Tests used:
[1] = system: Candida albicans; experiment: Antimicrobial activity against Candida albicans ATCC 2091 after 48 hr by two-fold serial dilution method; type: functional; conditions: ATCC 2091, 48 h
[2] = system: Staphylococcus aureus; experiment: Antimicrobial activity against Staphylococcus aureus ATCC 25923 after 24 hr by two fold serial dilution method; type: functional; conditions: ATCC 25923, 24 h
[3] = system: Enterococcus faecalis; experiment: Antimicrobial activity against Enterococcus faecalis ATCC 35550 after 24 hr by two-fold serial dilution method; type: functional; conditions: ATCC 35550, 24 h
[4] = system: Pseudomonas aeruginosa; experiment: Antimicrobial activity against Pseudomonas aeruginosa ATCC 25619 after 24 hr by two-fold serial dilution method; type: functional; conditions: ATCC 25619, 24 h
[5] = system: Escherichia coli; experiment: Antimicrobial activity against Escherichia coli ATCC 35218 after 24 hr by two-fold serial dilution method; type: functional; conditions: ATCC 35218, 24 h
[6] = system: MCF7; experiment: Cytotoxicity against Homo sapiens (human) MCF7 cells after 24 hr by MTT assay; type: functional, cell-based; conditions: MCF7, 24 h
[7] = system: HT-29; experiment: Cytotoxicity against Homo sapiens (human) HT-29 cells after 24 hr by MTT assay; type: functional, cell-based; conditions: HT-29, 24 h
[8] = system: A549; experiment: Cytotoxicity against Homo sapiens (human) A549 cells after 24 hr by MTT assay; type: functional, cell-based; conditions: A549, 24 h
[9] = system: Aspergillus niger; experiment: Antimicrobial activity against Aspergillus niger ATCC 6275 after 48 hr by two-foldserial dilution method; type: functional; conditions: ATCC 6275, 48 h
[10] = system: HeLa; experiment: Cytotoxicity against Homo sapiens (human) HeLa cells after 24 hr by MTT assay; type: functional, cell-based
[11] = system: Aspergillus flavus; experiment: Antimicrobial activity against Aspergillus flavus NCIM 524 after 48 hr by two-fold serial dilution method; type: functional; conditions: NCIM 524, 48 h
[12] = system: Cryptococcus neoformans; experiment: Antimicrobial activity against Cryptococcus neoformans clinical isolate after 48 hr by two-fold serial dilution method; type: functional

SMILES | MIC [1] [µg/mL] | MIC [2] [µg/mL] | MIC [3] [µg/mL] | MIC [4] [µg/mL] | MIC [5] [µg/mL] | pIC50 [6] | pIC50 [7] | pIC50 [8] | MIC [9] [µg/mL] | pIC50 [10] | MIC [11] [µg/mL] | MIC [12] [µg/mL]
Cn1cccc1/C=C1\SC(=O)N(Cc2ccc(C(=O)O)cc2)C1=O | 32 (≈ 93.5 µM) | 64 (≈ 187 µM) | 64 (≈ 187 µM) | 16 (≈ 46.7 µM) | 16 (≈ 46.7 µM) | 4.15 | 4.06 | 4.10 | 16 (≈ 46.7 µM) | 4.05 | 16 (≈ 46.7 µM) | 32 (≈ 93.5 µM)
O=C(O)c1ccc(CN2C(=O)S/C(=C\c3cccs3)C2=O)cc1 | 32 (≈ 92.6 µM) | 16 (≈ 46.3 µM) | 32 (≈ 92.6 µM) | 16 (≈ 46.3 µM) | 8 (≈ 23.2 µM) | 4.12 | 4.06 | 4.10 | 8 (≈ 23.2 µM) | 4.12 | 8 (≈ 23.2 µM) | 32 (≈ 92.6 µM)
Cc1ccc(/C=C2\SC(=O)N(Cc3ccc(C(=O)O)cc3)C2=O)cc1 | 64 (≈ 181 µM) | 32 (≈ 90.5 µM) | 32 (≈ 90.5 µM) | 16 (≈ 45.3 µM) | 16 (≈ 45.3 µM) | 4.00 | 4.14 | 4.11 | 64 (≈ 181 µM) | 4.17 | 32 (≈ 90.5 µM) | 64 (≈ 181 µM)
O=C(O)c1ccc(CN2C(=O)S/C(=C\c3ccccn3)C2=O)cc1 | 32 (≈ 94 µM) | 64 (≈ 188 µM) | 64 (≈ 188 µM) | 16 (≈ 47 µM) | 16 (≈ 47 µM) | 4.05 | 4.11 | 4.10 | 32 (≈ 94 µM) | 4.21 | 16 (≈ 47 µM) | 16 (≈ 47 µM)
CC1(C)S[C@@H]2[C@H](NC(=O)[C@H](N)c3ccccc3)C(=O)N2[C@H]1C(=O)O [AMPICILLIN] | – | 2 (≈ 5.72 µM) | 2 (≈ 5.72 µM) | – | – | – | – | – | – | – | – | –
COc1cc(/C=C2\SC(=O)N(Cc3ccc(C(=O)O)cc3)C2=O)cc(OC)c1OC | 2 (≈ 4.66 µM) | 8 (≈ 18.6 µM) | 8 (≈ 18.6 µM) | 8 (≈ 18.6 µM) | 8 (≈ 18.6 µM) | 4.52 | 4.49 | 4.44 | 4 (≈ 9.31 µM) | 4.52 | 4 (≈ 9.31 µM) | 4 (≈ 9.31 µM)
COc1ccc(/C=C2\SC(=O)N(Cc3ccc(C(=O)O)cc3)C2=O)cc1 | 16 (≈ 43.3 µM) | 16 (≈ 43.3 µM) | 16 (≈ 43.3 µM) | 32 (≈ 86.6 µM) | 32 (≈ 86.6 µM) | 4.32 | 4.36 | 4.36 | 32 (≈ 86.6 µM) | 4.40 | 32 (≈ 86.6 µM) | 16 (≈ 43.3 µM)
CC(=O)N1CCN(c2ccc(OCC3COC(Cn4ccnc4)(c4ccc(Cl)cc4Cl)O3)cc2)CC1 (configuration not stated) [KETOCONAZOLE] | 2 (≈ 3.76 µM) | – | – | – | – | – | – | – | 2 (≈ 3.76 µM) | – | 1 (≈ 1.88 µM) | 2 (≈ 3.76 µM)
O=C(O)c1ccc(CN2C(=O)S/C(=C\c3ccco3)C2=O)cc1 | 64 (≈ 194 µM) | 32 (≈ 97.2 µM) | 64 (≈ 194 µM) | 16 (≈ 48.6 µM) | 16 (≈ 48.6 µM) | 4.05 | 4.03 | 4.12 | 32 (≈ 97.2 µM) | 4.10 | 32 (≈ 97.2 µM) | 64 (≈ 194 µM)
O=C(O)c1ccc(CN2C(=O)S/C(=C\c3ccc(Br)cc3)C2=O)cc1 | 16 (≈ 38.3 µM) | 128 (≈ 306 µM) | 128 (≈ 306 µM) | 4 (≈ 9.56 µM) | 4 (≈ 9.56 µM) | 4.32 | 4.52 | 4.38 | 32 (≈ 76.5 µM) | 4.42 | 16 (≈ 38.3 µM) | 16 (≈ 38.3 µM)
O=C(O)c1ccc(CN2C(=O)S/C(=C\c3ccccc3)C2=O)cc1 | 16 (≈ 47.1 µM) | 128 (≈ 377 µM) | 64 (≈ 189 µM) | 8 (≈ 23.6 µM) | 4 (≈ 11.8 µM) | 4.00 | 4.06 | 4.05 | 16 (≈ 47.1 µM) | 4.14 | 32 (≈ 94.3 µM) | 16 (≈ 47.1 µM)
O=C(O)c1ccc(CN2C(=O)S/C(=C\c3ccc(F)cc3)C2=O)cc1 | 2 (≈ 5.6 µM) | 2 (≈ 5.6 µM) | 4 (≈ 11.2 µM) | 4 (≈ 11.2 µM) | 4 (≈ 11.2 µM) | 4.42 | 4.49 | 4.44 | 4 (≈ 11.2 µM) | 4.47 | 4 (≈ 11.2 µM) | 4 (≈ 11.2 µM)
COc1cccc(/C=C2\SC(=O)N(Cc3ccc(C(=O)O)cc3)C2=O)c1 | 32 (≈ 86.6 µM) | 16 (≈ 43.3 µM) | 16 (≈ 43.3 µM) | 8 (≈ 21.7 µM) | 8 (≈ 21.7 µM) | 4.24 | 4.32 | 4.26 | 32 (≈ 86.6 µM) | 4.32 | 32 (≈ 86.6 µM) | 16 (≈ 43.3 µM)
O=C(O)c1ccc(CN2C(=O)S/C(=C\c3ccncc3)C2=O)cc1 | 16 (≈ 47 µM) | 32 (≈ 94 µM) | 16 (≈ 47 µM) | 16 (≈ 47 µM) | 16 (≈ 47 µM) | 4.08 | 4.10 | 4.14 | 32 (≈ 94 µM) | 4.22 | 32 (≈ 94 µM) | 16 (≈ 47 µM)
O=C(O)c1ccc(CN2C(=O)S/C(=C\c3cccnc3)C2=O)cc1 | 32 (≈ 94 µM) | 128 (≈ 376 µM) | 128 (≈ 376 µM) | 32 (≈ 94 µM) | 32 (≈ 94 µM) | 4.00 | 4.05 | 4.12 | 16 (≈ 47 µM) | 4.06 | 16 (≈ 47 µM) | 32 (≈ 94 µM)
